From US10538516B2, “Oxadiazole derivative and pharmaceutical containing same” (National Center for Geriatrics and Gerontology, priority 2015, dated 2020)
Counter-ions that a name gives are not always drawn. Like-named read-outs stand apart in the source and are kept apart here.

Target: T1, GAβ-dependent amyloid fibril formation (Human Aβ1-40 + GM1-containing liposome) (Homo sapiens, UniProt P05067)
T1 construct: Human Aβ1-40 (cat. #4307-v, prepared by Peptide Institute); purchased Peptide Institute 4307-v
T1 sequence (P05067 672-711 limits assumed): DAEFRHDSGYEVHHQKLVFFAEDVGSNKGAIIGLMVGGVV
Assay: Thioflavin T (ThT) assay of GAβ-dependent amyloid fibril formation (Aβ1-40 with GM1-containing liposome)
Type: biochemical
In short: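 Human Aβ1-40 (75 μM stock) pre-incubated 10 min at room temperature with compound (75 or 15 μM solution), then GM1-containing cholesterol/sphingomyelin liposome added and incubated 37° C, 18 hours. Fibrils quantified by ThT fluorescence (ex 430/em 490 nm, pH 8.5 glycine buffer); inhibition as ratio to compound-free control.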

[1] = inhibition rate against amyloid fibril formation, final concentration of the compound 25 μM, read-out: Inhibitory activity ABC evaluation
[2] = @25 μM, read-out: ThT Inhibitory activity (% inhibition)
[3] = read-out: ThT Inhibitory activity (% inhibition)
[4] = final concentration of the compound 25 μM, ratio of ThT fluorescence intensity with/without compound, 37° C. for 18 hours, read-out: inhibition rate against amyloid fibril formation (inhibitory activity on a scale of A to C)

Row | SMILES | inhibition at 25 µM [1] | also measured
1 | CS(=O)(=O)Nc1ccc(-c2nnc([C@@H](N)Cc3c[nH]c4ccccc34)o2)cc1 [Compound 111, (S)-N-(4-(5-(1-amino-2-(1H-indol-3-yl)ethyl)-1,3,4-oxadiazol-2-yl)phenyl) methane-sulfonamide hydrochloride] | < 40% | 
2 | O=C(N[C@@H](CO)c1nnc(-c2ccc(OC(F)(F)F)cc2)o1)c1ccc(F)cc1 [Compound 112, (S)-4-fluoro-N-(2-hydroxy-1-(5-(4-(tri-fluoromethoxy)phenyl)-1,3,4-oxadiazol-2-yl)ethyl)benzamide] | 40 to 80% | 
3 | COc1ccc(-c2nnc([C@H](CO)NC(=O)c3ccc(Cl)cc3)o2)cc1F [Compound 113, (S)-4-chloro-N-(1-(5-(3-fluoro-4-methoxy-phenyl)-1,3,4-oxadiazol-2-yl)-2-hydroxy-ethyl)benzamide] | < 40% | 
4 | N[C@H](Cc1c[nH]c2ccccc12)c1nnc(-c2ccc(OC(F)(F)F)cc2)o1 [Compound 114, (R)-2-(1H-indol-3-yl)-1-(5-(4-(trifluoro-methoxy)phenyl)-1,3,4-oxadiazol-2-yl) ethan-1-amine] | > 80% | 
5 | C=C(NC(=O)c1ccc(Cl)cc1)c1nnc(-c2ccc(OC(F)(F)F)cc2)o1 [Compound 115, 4-chloro-N-(1-(5-(4-(trifluoromethoxy)phenyl)-1,3,4-oxadiazol-2-yl)vinyl)benzamide] | < 40% | 
6 | NCC(NC(=O)c1ccc(Cl)cc1)c1nnc(-c2ccc(OC(F)(F)F)cc2)o1 (stereo not shown) [Compound 116, N-(2-amino-1-{5-[4-(trifluoromethoxy)phenyl]-1,3,4-oxadiazol-2-yl}ethyl)-4-chlorobenzamide] | > 80% | 
7 | O=C(NC(CN1CCOCC1)c1nnc(-c2ccc(OC(F)(F)F)cc2)o1)c1ccc(Cl)cc1 (stereo not shown) [Compound 117, 4-chloro-N-(2-morpholino-1-(5-(4-(trifluoro-methoxy)phenyl)-1,3,4-oxadiazol-2-yl)ethyl) benzamide] | 40 to 80% | 
8 | CNCC(NC(=O)c1ccc(Cl)cc1)c1nnc(-c2ccc(OC(F)(F)F)cc2)o1 (stereo not shown) [Compound 118, 4-chloro-N-(2-(methylamino)-1-(5-(4-(tri-fluoromethoxy)phenyl)-1,3,4-oxadiazol-2-yl)ethyl)benzamide] | 40 to 80% | inhibition at 25 µM [2]: 72%
9 | O=C(NC(CNCCO)c1nnc(-c2ccc(OC(F)(F)F)cc2)o1)c1ccc(Cl)cc1 (stereo not shown) [Compound 119, 4-chloro-N-(2-((2-hydroxyethyl)amino)-1-(5-(4-(trifluoro-methoxy)phenyl)-1,3,4-oxadiazol-2-yl)ethyl) benzamide] | 40 to 80% | 
10 | O=C(N[C@@H](CO)c1nnc(-c2ccc(O)c(F)c2)o1)c1ccc(Cl)cc1 [Compound 120, (S)-4-chloro-N-(1-(5-(3-fluoro-4-hydroxyphenyl)-1,3,4-oxadiazol-2-yl)-2-hydroxy-ethyl)benzamide] | < 40% | 
11 | O=C1CC(c2nc(-c3ccc(OC(F)(F)F)cc3)ns2)CN1c1ccc(Cl)cc1 (stereo not shown) [Compound 121, 1-(4-chlorophenyl)-4-{3-[4-(trifluoromethoxy)phenyl]-1,2,4-thiadiazol-5-yl}pyrrolidin-2-one] | 40 to 80% | 
12 | O=C1CC(c2nnn(-c3ccc(OC(F)(F)F)cc3)n2)CN1c1ccc(Cl)cc1 (stereo not shown) [Compound 122, 1-(4-chlorophenyl)-4-{2-[4-(trifluoromethoxy)phenyl]-2H-tetrazol-5-yl}pyrrolidin-2-one] | < 40% | 
13 | O=C1CC(c2nnc(-c3ccc(OC(F)(F)F)cc3)[nH]2)CN1c1ccc(Cl)cc1 (stereo not shown) [Compound 123, 1-(4-chlorophenyl)-4-{5-[4-(trifluoromethoxy)phenyl]-4H-1,2,4-triazol-3-yl}pyrrolidin-2-one] | < 40% | 
14 | O=C1CC(c2ncc(-c3ccc(OC(F)(F)F)cc3)[nH]2)CN1c1ccc(Cl)cc1 (stereo not shown) [Compound 124, 1-(4-chlorophenyl)-4-{5-[4-(trifluoromethoxy)phenyl]-1H-imidazol-2-yl}pyrrolidin-2-one] | < 40% | 
15 | COc1ccc(-c2noc([C@H](CO)NC(=O)c3ccc(Cl)cc3)n2)cc1 [Compound 125, (S)-4-chloro-N-(2-hydroxy-1-(3-(4-methoxyphenyl)-1,2,4-oxadiazol-5-yl)ethyl)benzamide] | > 80% | inhibition at 5 µM [3]: 59%; inhibition at 25 µM [2]: 88%
16 | O=C(N[C@@H](CO)c1noc(-c2ccc(OC(F)(F)F)cc2)n1)c1ccc(Cl)cc1 [Compound 126, (R)-4-chloro-N-(2-hydroxy-1-(5-(4-(trifluoromethoxy)phenyl)-1,2,4-oxadiazol-3-yl)ethyl)benzamide] | 40 to 80% | 
17 | C[C@H](O)[C@H](NC(=O)c1ccc(Cl)cc1)c1nc(-c2ccc(OC(F)(F)F)cc2)no1 [Compound 127, 4-chloro-N-((1S,2S)-2-hydroxy-1-(3-(4-(trifluoromethoxy)phenyl)-1,2,4-oxa-diazol-5-yl)propyl) benzamide] | 40 to 80% | 

Row | SMILES | inhibition at 25 µM [1] | also measured
18 | O=C(N[C@@H](CO)c1noc(-c2ccc(OC(F)(F)F)cc2)n1)c1ccccc1 [Compound 128, (R)-N-(2-hydroxy-1-(5-(4-(trifluoro-methoxy)phenyl)-1,2,4-oxadiazol-3-yl)ethyl)benzamide] | 40 to 80% | 
19 | O=C(N[C@@H](CO)c1nc(-c2ccc(C(F)(F)F)cc2)no1)c1ccc(Cl)cc1 [Compound 129, (S)-4-chloro-N-(2-hydroxy-1-(3-(4-(tri-fluoromethyl)phenyl)-1,2,4-oxadiazol-5-yl)ethyl)benzamide] | > 80% | inhibition at 5 µM [3]: 68%; inhibition at 25 µM [2]: 86%; inhibition at 25 µM [4]: > 80%
20 | O=C(N[C@@H](CO)c1nc(-c2ccc(C(F)(F)F)cc2)no1)c1ccccc1 [Compound 130, (S)-N-(2-hydroxy-1-(3-(4-(trifluoro-methyl)phenyl)-1,2,4-oxadiazol-5-yl)ethyl)benzamide] | > 80% | inhibition at 5 µM [3]: 67%; inhibition at 25 µM [2]: 85%
21 | O=C(c1ccc(Cl)cc1)N1CC[C@H](O)[C@H]1c1nc(-c2ccc(OC(F)(F)F)cc2)no1 [Compound 131, (4-chlorophenyl) ((2S,3S)-3-hydroxy-2-(3-(4-(trifluoro-methoxy)phenyl)-1,2,4-oxadiazol-5-yl)pyrrolidin-1-yl)methanone] | 40 to 80% | 
22 | COc1ccc(-c2noc([C@@H](NC(=O)c3ccc(Cl)cc3)[C@@H](C)O)n2)cc1 [Compound 132, 4-chloro-N-((1S,2R)-2-hydroxy-1-(3-(4-methoxy-phenyl)-1,2,4-oxadiazol-5-yl)propyl)benzamide] | > 80% | inhibition at 25 µM [4]: > 80%
23 | O=C(N[C@@H](CO)c1nc(-c2ccc(C(F)(F)F)cc2)no1)c1ccc(F)cc1 [Compound 133, (S)-4-fluoro-N-(2-hydroxy-1-(3-(4-(trifluoromethyl)phenyl)-1,2,4-oxadiazol-5-yl)ethyl)benzamide] |  | inhibition at 25 µM [2]: 88%; inhibition at 25 µM [4]: > 80%; Inhibitory activity ABC evaluation (inhibition rate against amyloid fibril formation, final concentration of the compound 25 μM, 25 µM): A (80% or more was evaluated as A)
24 | O=C(N[C@@H](CO)c1nc(-c2ccc(O)cc2F)no1)c1ccccc1 [Compound 142, N-[(1S)-1-[3-(2-fluoro-4-hydroxyphenyl)-1,2,4-oxadiazol-5-yl]-2-hydroxyethyl]benzamide] | 40 to 80% | 
25 | Cc1ccc(-c2noc([C@H](CO)NC(=O)c3ccccc3)n2)cc1 [Compound 143, N-[(1S)-2-hydroxy-1-[3-(4-methylphenyl)-1,2,4-oxadiazol-5-yl]ethyl]benzamide] | > 80% | 
26 | COc1ccc(-c2noc([C@H](CO)NC(=O)c3ccccc3)n2)cc1F [Compound 144, N-[(1S)-1-[3-(3-fluoro-4-methoxyphenyl)-1,2,4-oxadiazol-5-yl]-2-hydroxyethyl]benzamide] | > 80% | 
27 | CC(C)c1ccc(-c2noc([C@H](CO)NC(=O)c3ccccc3)n2)cc1 [Compound 145, N-[(1S)-2-hydroxy-1-{3-[4-(propan-2-yl)phenyl]-1,2,4-oxadiazol-5-yl}ethyl]benzamide] | 40 to 80% | 
28 | O=C(N[C@@H](CO)c1nc(-c2ccc(O)cc2)no1)c1ccccc1 [Compound 146, N-[(1S)-2-hydroxy-1-[3-(4-hydroxy-phenyl)-1,2,4-oxadiazol-5-yl]ethyl]benzamide] | > 80% | inhibition at 25 µM [2]: 87%
29 | COCCCNC(=O)c1ccc(-c2noc([C@H](CO)NC(=O)c3ccc(F)cc3)n2)cc1 [Compound 147, 4-{5-[(1S)-1-[(4-fluorophenyl) formamido]-2-hydroxyethyl]-1,2,4-oxadiazol-3-yl}-N-(3-methoxypropyl) benzamide] | 40 to 80% | inhibition at 25 µM [2]: 53%
30 | COCCCNC(=O)c1ccc(-c2noc([C@H](CO)NC(=O)c3ccccc3)n2)cc1 [Compound 148, 4-[5-[(1S)-2-hydroxy-1-(phenylformamido)ethyl]-1,2,4-oxa-diazol-3-yl)-N-(3-methoxypropyl) benzamide] | 40 to 80% | 
31 | NC[C@H](NC(=O)c1ccccc1)c1nc(-c2ccc(OC(F)(F)F)cc2)no1 [Compound 149, N-[(1S)-2-amino-1-{3-[4-(trifluoromethoxy)phenyl]-1,2,4-oxa-diazol-5-yl}ethyl] benzamide] | < 40% | 
32 | CN(C)c1ccc(-c2noc([C@H](CO)NC(=O)c3ccccc3)n2)cc1 [Compound 150, N-[(1S)-1-{3-[4-(dimethylamino)phenyl]-1,2,4-oxadiazol-5-yl}-2-hydroxyethyl] benzamide] | > 80% | 
33 | O=C(NCC(CO)c1nc(-c2ccc(C(F)(F)F)cc2)no1)c1ccc(F)cc1 (stereo not shown) [Compound 151, 4-fluoro-N-(3-hydroxy-2-{3-[4-(trifluoro-methyl)phenyl]-1,2,4-oxadiazol-5-yl}propyl)benzamide] | 40 to 80% | 
